Results from the supplement of paper PMC10627819.

Columns and labels:
Test in all cases: Bliss interaction score (quartile over a dose matrix) (fitness difference); higher = more antagonism (negative = synergy)
[1] = tested on: B. subtilis 168
How it was run: (§1)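 Each OD595 reading at entry into stationary phase was scaled to the robust mean of the untreated wells on its plate, with a ceiling of 1. These ratios define fitness, and single-drug fitness was inferred from combinations. The Bliss score compares observed fitness with the product-based expectation and is reported as quartiles across all replicate types, technical, biological and donor/recipient.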

[2] = tested on: S. aureus DSM 20231
How it was run: as §1

[3] = tested on: S. aureus Newman
How it was run: as §1

[4] = tested on: S. pneumoniae D39V
How it was run: as §1
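Also: first quartile when negative (synergy) and third quartile when positive (antagonism).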

| SMILES | Bliss interaction score [1] | Bliss interaction score [2] | Bliss interaction score [3] | Bliss interaction score [4] | Bliss interaction score ([1]; main component drawn) | Bliss interaction score ([2]; main component drawn) | Bliss interaction score ([3]; main component drawn) | Bliss interaction score ([4]; main component drawn) |
| --- | --- | --- | --- | --- | --- | --- | --- | --- |
| CC(=O)OC[C@H]1O[C@@H]([S-])[C@H](OC(C)=O)[C@@H](OC(C)=O)[C@@H]1OC(C)=O.CCP(CC)CC.[Au+] [Auranofin] + C[C@H]1COc2c(N3CCN(C)CC3)c(F)cc3c(=O)c(C(=O)O)cn1c23 [Levofloxacin] | 0.044 | 0.0688 | 0.0684 | -0.0939 | – | – | – | – |
| O=C(N[C@H](CO)[C@H](O)c1ccc([N+](=O)[O-])cc1)C(Cl)Cl [Chloramphenicol] + Clc1ccc(COC(Cn2ccnc2)c2ccc(Cl)cc2Cl)c(Cl)c1 [Miconazole] | 0.0615 | 0.0813 | 0.0868 | 0.0799 | – | – | – | – |
| CCCCCCCCCC(=O)N[C@H]1[C@H](Oc2c3cc4cc2Oc2ccc(cc2Cl)[C@@H](O[C@@H]2O[C@H](CO)[C@@H](O)[C@H](O)[C@H]2NC(C)=O)[C@@H]2NC(=O)[C@H](NC(=O)[C@@H]4NC(=O)[C@H]4NC(=O)[C@@H](Cc5ccc(c(Cl)c5)O3)NC(=O)[C@H](N)c3ccc(O)c(c3)Oc3cc(O)cc4c3)c3ccc(O)c(c3)-c3c(O[C@H]4O[C@H](CO)[C@@H](O)[C@H](O)[C@@H]4O)cc(O)cc3[C@@H](C(=O)O)NC2=O)O[C@H](CO)[C@@H](O)[C@@H]1O [Teicoplanin] + Oc1cc(Cl)ccc1Oc1ccc(Cl)cc1Cl [Triclosan] | – | – | – | – | 0.0943 | 0.0695 | -0.0356 | -0.106 |
| O=C1CN(/N=C/c2ccc([N+](=O)[O-])o2)C(=O)N1 [Nitrofurantoin] + Oc1cc(Cl)ccc1Oc1ccc(Cl)cc1Cl [Triclosan] | -0.039 | -0.014 | 0.0328 | 0.0809 | – | – | – | – |
| N[C@@H]1CONC1=O [CycloserineD] + Cn1nnc(-c2ccc(-c3ccc(N4C[C@H](CO)OC4=O)cc3F)cn2)n1 [Tedizolid] | 0.0364 | -0.101 | 0.0593 | 0.126 | – | – | – | – |
| O=C(N[C@H](CO)[C@H](O)c1ccc([N+](=O)[O-])cc1)C(Cl)Cl [Chloramphenicol] + CC[C@H]1OC(=O)[C@H](C)[C@@H](O[C@H]2C[C@@](C)(OC)[C@@H](O)[C@H](C)O2)[C@H](C)[C@@H](O[C@@H]2O[C@H](C)C[C@H](N(C)C)[C@H]2O)[C@](C)(OC)C[C@@H](C)C(=O)[C@H](C)[C@@H](O)[C@]1(C)O [Clarithromycin] | -0.0459 | -0.158 | -0.129 | 0.0359 | – | – | – | – |
| O=C(N[C@H](CO)[C@H](O)c1ccc([N+](=O)[O-])cc1)C(Cl)Cl [Chloramphenicol] + CN(C)[C@@H]1C(O)=C(C(N)=O)C(=O)[C@@]2(O)C(O)=C3C(=O)c4c(O)ccc(Cl)c4[C@@](C)(O)[C@H]3C[C@@H]12 [Clortetracycline] | -0.117 | 0.0518 | -0.0412 | -0.0404 | – | – | – | – |
| N[C@@H]1CONC1=O [CycloserineD] + C/C(=C\C(=O)OCCCCCCCCC(=O)O)C[C@@H]1OC[C@H](C[C@@H]2O[C@H]2[C@@H](C)[C@H](C)O)[C@@H](O)[C@H]1O [Pseudomonic acid] | -0.0491 | 0.009 | -0.0141 | 0.136 | – | – | – | – |
| CC(=O)OC[C@H]1O[C@@H]([S-])[C@H](OC(C)=O)[C@@H](OC(C)=O)[C@@H]1OC(C)=O.CCP(CC)CC.[Au+] [Auranofin] + CN(C)C(=O)C(CCN1CCC(O)(c2ccc(Cl)cc2)CC1)(c1ccccc1)c1ccccc1 [Loperamide] | 0.0417 | 0.0252 | 0.113 | 0.116 | – | – | – | – |
| CC(=O)OC[C@H]1O[C@@H]([S-])[C@H](OC(C)=O)[C@@H](OC(C)=O)[C@@H]1OC(C)=O.CCP(CC)CC.[Au+] [Auranofin] + CC[C@H]1OC(=O)[C@H](C)[C@@H](O[C@H]2C[C@@](C)(OC)[C@@H](O)[C@H](C)O2)[C@H](C)[C@@H](O[C@@H]2O[C@H](C)C[C@H](N(C)C)[C@H]2O)[C@](C)(O)C[C@@H](C)CN(C)[C@H](C)[C@@H](O)[C@]1(C)O [Azithromycin] | 0.0589 | 0.0282 | 0.137 | -0.038 | – | – | – | – |
| C[C@@H](O)[C@H]1C(=O)N2C(C(=O)O)=C(SCCNC=N)C[C@H]12 [Imipenem] + CO[C@@H]1[C@@H](OC(N)=O)[C@@H](O)[C@H](Oc2ccc3c(O)c(NC(=O)c4ccc(O)c(CC=C(C)C)c4)c(=O)oc3c2C)OC1(C)C [Novobiocin] | -0.166 | 0.0228 | -0.0163 | -0.107 | – | – | – | – |
| CC(=O)O[C@H]1C[C@@]2(C)[C@@H](C[C@@H](O)[C@H]3[C@@]4(C)CC[C@@H](O)[C@@H](C)[C@@H]4CC[C@@]32C)/C1=C(\CCC=C(C)C)C(=O)O [Fusidic acid] + CC1=C\[C@@H](O)CC(=O)Cc2nc(co2)C(=O)N2CCC=C2C(=O)O[C@H](C(C)C)[C@H](C)/C=C/C(=O)NC\C=C\1 [Virginiamycin M1] | 0.0743 | 0.0345 | -0.044 | 0.0996 | – | – | – | – |
| CC(=O)OC[C@H]1O[C@@H]([S-])[C@H](OC(C)=O)[C@@H](OC(C)=O)[C@@H]1OC(C)=O.CCP(CC)CC.[Au+] [Auranofin] + N[C@@H]1CONC1=O [CycloserineD] | 0.0806 | -0.0513 | 0.0247 | 0.106 | – | – | – | – |
| CC(=O)O[C@H]1C[C@@]2(C)[C@@H](C[C@@H](O)[C@H]3[C@@]4(C)CC[C@@H](O)[C@@H](C)[C@@H]4CC[C@@]32C)/C1=C(\CCC=C(C)C)C(=O)O [Fusidic acid] + CO[C@@H]1[C@@H](OC(N)=O)[C@@H](O)[C@H](Oc2ccc3c(O)c(NC(=O)c4ccc(O)c(CC=C(C)C)c4)c(=O)oc3c2C)OC1(C)C [Novobiocin] | 0.0723 | 0.0249 | 0.0521 | -0.153 | – | – | – | – |
| CC(=O)OC[C@H]1O[C@@H]([S-])[C@H](OC(C)=O)[C@@H](OC(C)=O)[C@@H]1OC(C)=O.CCP(CC)CC.[Au+] [Auranofin] + Oc1cc(Cl)ccc1Oc1ccc(Cl)cc1Cl [Triclosan] | -0.0277 | -0.0223 | -0.0211 | 0.106 | – | – | – | – |
